The record followed here is patent US11976057B2, “MrgX2 antagonists” (GlaxoSmithKline Intellectual Property Development Limited, priority 2020, dated 2024).

Molecules are shown by their SMILES.

The assay has as its target T1, human MRGPRX2 (Homo sapiens, UniProt Q96LB1).
T1 sequence (Q96LB1 1-330): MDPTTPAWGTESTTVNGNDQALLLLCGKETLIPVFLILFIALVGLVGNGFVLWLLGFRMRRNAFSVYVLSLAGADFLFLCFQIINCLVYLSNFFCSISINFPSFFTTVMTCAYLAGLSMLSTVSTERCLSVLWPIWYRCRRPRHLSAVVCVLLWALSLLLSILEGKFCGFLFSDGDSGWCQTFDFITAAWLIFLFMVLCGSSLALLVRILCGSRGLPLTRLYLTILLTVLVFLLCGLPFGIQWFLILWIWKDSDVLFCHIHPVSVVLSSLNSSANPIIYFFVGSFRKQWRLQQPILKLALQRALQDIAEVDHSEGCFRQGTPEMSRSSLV
Briefly: Ca2+ mobilization assay (FLIPR TETRA): inhibition of Cortistatin-14 mediated MRGPRX2 activation. Background: Calcium flux is commonly read through the fluorescence of an indicator in the cells.
The term IC50 denotes the midpoint of a concentration-inhibition curve. Lower therefore signals higher potency. Regarding `CNCc1cc(C2CN(C(C)C(=O)Nc3ccc(Oc4ccc(F)cc4)cn3)CCC2(F)F)c[nH]c1=O` (stereo not shown) [Example 237, 2-(4,4-difluoro-3-(5-((methylamino)methyl)-6-oxo-1,6-dihydropyridin-3-yl)piperidin-1-yl)-N-(5-(4-fluorophenoxy)pyridin-2-yl)propanamide], the IC50 was ≤ 10 nM.

For the compound `C[C@@H](C(=O)Nc1cnc(Oc2ccc(F)cc2)cn1)N1CCC(F)(F)[C@@H](c2c[nH]c(=O)c(CN)c2)C1` [Example 206, (S)-2-((S)-3-(5-(aminomethyl)-6-oxo-1,6-dihydropyridin-3-yl)-4,4-difluoropiperidin-1-yl)-N-(5-(4-fluorophenoxy)pyrazin-2-yl)propanamide], the IC50 lay within 10 to 100 nM.

For the compound `C[C@@H](C(=O)Nc1ccc(Oc2ccc(F)cc2)cn1)N1CCC(F)(F)[C@@H](c2cc[n+]([O-])c(CO)c2)C1` [Example 254, 4-((S)-4,4-difluoro-1-((S)-1-((5-(4-fluorophenoxy)pyridin-2-yl)amino)-1-oxopropan-2-yl)piperidin-3-yl)-2-(hydroxymethyl)pyridine 1-oxide], the IC50 was ≤ 10 nM.

`C[C@@H](C(=O)Nc1ccc2oc(C3CC3)nc2n1)N1CCC(F)(F)[C@@H](c2ccc(=O)[nH]c2)C1` [Example 17, (S)-N-(2-cyclopropyl-oxazolo[4,5-b]pyridin-5-yl)-2-((S)-4,4-difluoro-3-(6-oxo-1,6-dihydropyridin-3-yl)piperidin-1-yl)propanamide] showed an IC50 of 100 to 3160 nM.

Compound `C[C@@H](C(=O)Nc1ccc(/C=C\C2CC2)cn1)N1CCC(F)(F)[C@@H](c2ccc(=O)[nH]c2)C1` [Example 80, (S)-N-(5-((Z)-2-cyclopropylvinyl)pyridin-2-yl)-2-((S)-4,4-difluoro-3-(6-oxo-1,6-dihydropyridin-3-yl)piperidin-1-yl)propanamide] yielded an IC50 of 10 to 100 nM.

`C[C@@H](C(=O)Nc1ccc(Oc2ncc(F)cc2F)cn1)[C@H]1CCC[C@@H](c2cc[n+]([O-])cc2)C1` [Example 290, 4-((1R,3S)-3-((R)-1-((5-((3,5-difluoropyridin-2-yl)oxy)pyridin-2-yl)amino)-1-oxopropan-2-yl)cyclohexyl)pyridine 1-oxide]: the IC50 was in the range of 10 to 100 nM.

In turn, `C[C@@H](C(=O)Nc1ccc(OCC2CC2)cn1)N1CCC(F)(F)[C@@H](c2ccc(=O)[nH]n2)C1` [Example 145, (S)—N-(5-(cyclopropylmethoxy)pyridin-2-yl)-2-((R)-4,4-difluoro-3-(6-oxo-1,6-dihydropyridazin-3-yl)piperidin-1-yl)propanamide] had an IC50 of 10 to 100 nM.

In the case of `C[C@@H](C(=O)Nc1ccc(Oc2ccc(F)c(F)c2F)cn1)N1CCC(F)(F)[C@@H](c2cc[n+]([O-])cc2)C1` [Example 131, 4-((S)-4,4-difluoro-1-((S)-1-oxo-1-((5-(2,3,4-trifluorophenoxy)pyridin-2-yl)amino)propan-2-yl)piperidin-3-yl)pyridine 1-oxide], the IC50 is ≤ 10 nM.

Regarding `C[C@@H](C(=O)Nc1ccc(Oc2ccc(F)cc2F)cn1)N1CCC(F)(F)[C@@H](c2c[nH]c(=O)c([C@H](N)C(F)(F)F)c2)C1` (single isomer, unassigned) [Example 235], the IC50 is ≤ 10 nM.

Regarding `C[C@@H](C(=O)Nc1ccc(Oc2ccc(F)cn2)cn1)N1CCC(F)(F)[C@@H](c2c[nH]c(=O)c(CN)c2)C1` [Example 208, (S)-2-((S)-3-(5-(aminomethyl)-6-oxo-1,6-dihydropyridin-3-yl)-4,4-difluoropiperidin-1-yl)-N-(5-((5-fluoropyridin-2-yl)oxy)pyridin-2-yl)propanamide], the IC50 is ≤ 10 nM.

The compound `COc1cccc(Oc2ccc(NC(=O)C(C)N3CCC(F)(F)[C@@H](c4ccc(=O)[nH]c4)C3)nc2)n1` (stereo partly drawn) [Example 95, 2-((S)-4,4-difluoro-3-(6-oxo-1,6-dihydropyridin-3-yl)piperidin-1-yl)-N-(5-((6-methoxypyridin-2-yl)oxy)pyridin-2-yl)propanamide] showed an IC50 of 10 to 100 nM.

For the compound `C[C@@H](C(=O)Nc1ccc(Oc2ccc(F)cc2F)cn1)N1CCC(F)(F)C(c2cncc(C(O)C(F)(F)F)c2)C1` (mixture of isomers) [Example 265, (2S)-2-(4,4-difluoro-3-(5-(2,2,2-trifluoro-1-hydroxyethyl)pyridin-3-yl)piperidin-1-yl)-N-(5-(2,4-difluorophenoxy)pyridin-2-yl)propanamide], the IC50 is ≤ 10 nM.

On to `C[C@@H](C(=O)Nc1cnc(Oc2ccc(F)cc2F)cn1)[C@H]1CCC(F)(F)[C@@H](c2cc[n+]([O-])cc2)C1` [Example 295, 4-((1R,5S)-5-((R)-1-((5-(2,4-difluorophenoxy)pyrazin-2-yl)amino)-1-oxopropan-2-yl)-2,2-difluorocyclohexyl)pyridine 1-oxide], for which the IC50 was ≤ 10 nM.

Compound `CC(C(=O)Nc1ccc(C2CCCCC2)cn1)N1CCC(F)(F)[C@@H](c2ccc(=O)[nH]c2)C1` (stereo partly drawn) [Example 42, N-(5-cyclohexyl-pyridin-2-yl)-2-((S)-4,4-difluoro-3-(6-oxo-1,6-dihydropyridin-3-yl)piperidin-1-yl)propanamide] returned an IC50 of 100 to 3160 nM.

Compound `CC(C(=O)Nc1ccc(Cc2ncco2)cn1)N1CCC(F)(F)[C@@H](c2ccc(=O)[nH]c2)C1` (stereo partly drawn) [Example 53, 2-((S)-4,4-difluoro-3-(6-oxo-1,6-dihydropyridin-3-yl)piperidin-1-yl)-N-(5-(oxazol-2-ylmethy)pyridin-2-yl)propanamide] gave an IC50 of 3160 to 31600 nM.

As to `C[C@@H](C(=O)Nc1ccc(Oc2ccc(F)cc2)cn1)N1CCC(F)(F)[C@@H](c2c[nH]c(=O)c(N)n2)C1` [Example 108, (S)-2-((R)-3-(6-amino-5-oxo-4,5-dihydropyrazin-2-y1)-4,4-difluoropiperidin-1-y1)-N-(5-(4-fluorophenoxy)pyridin-2-yl)propanamide], the IC50 was ≤ 10 nM.

`CC(C(=O)Nc1ncc(Oc2ccc(F)cn2)cc1F)N1CCC(F)(F)[C@@H](c2ccc(=O)[nH]c2)C1` (stereo partly drawn) [Example 91, 2-((S)-4,4-difluoro-3-(6-oxo-1,6-dihydropyridin-3-yl)piperidin-1-yl)-N-(3-fluoro-5-((5-fluoropyridin-2-yl)oxy)pyridin-2-yl)propanamide] registered an IC50 of 100 to 3160 nM.

The compound `C[C@@H](C(=O)Nc1ccc(F)cn1)[C@H]1CCC(F)(F)[C@@H](c2ccc(=O)[nH]c2)C1` [Example 277, (R)-2-((1S,3R)-4,4-difluoro-3-(6-oxo-1,6-dihydropyridin-3-yl)cyclohexyl)-N-(5-fluoropyridin-2-yl)propanamide] returned an IC50 of 10 to 100 nM.

Turning to `C[C@@H](C(=O)Nc1ccc(Cl)cn1)N1CCC(F)(F)[C@@H](c2cc[n+]([O-])cc2)C1` [Example 112, 4-((S)-1-((S)-1-((5-chloropyridin-2-yl)amino)-1-oxopropan-2-yl)-4,4-difluoropiperidin-3-yl)pyridine 1-oxide], the IC50 was 100 to 3160 nM.

The compound `C[C@@H](C(=O)Nc1ncc(OCC2CC2)cc1F)N1CCC(F)(F)[C@@H](c2ccc(=O)[nH]c2)C1` [Example 28, (S)-N-(5-(cyclopropyl-methoxy)-3-fluoropyridin-2-yl)-2-((S)-4,4-difluoro-3-(6-oxo-1,6-dihydropyridin-3-yl)piperidin-1-yl)propanamide] had an IC50 of 100 to 3160 nM.

The compound `CC(C(=O)Nc1cc2ccn(CC3CC3)c2cn1)N1CCC(F)(F)[C@@H](c2ccc(=O)[nH]c2)C1` (stereo partly drawn) [Example 51, N-(1-(cyclopropyl-methyl)-1H-pyrrolo[2,3-c]pyridin-5-yl)-2-((S)-4,4-difluoro-3-(6-oxo-1,6-dihydropyridin-3-yl)piperidin-1-yl)propanamide] registered an IC50 of 100 to 3160 nM.

Regarding `C[C@@H](C(=O)Nc1ccc(-c2ccccc2)cn1)N1CCC(F)(F)[C@@H](c2ccc(=O)[nH]c2)C1` [Example 23, (S)-2-((S)-4,4-difluoro-3-(6-oxo-1,6-dihydropyridin-3-yl)piperidin-1-yl)-N-(5-phenylpyridin-2-yl)propanamide], the IC50 fell in the range of 100 to 3160 nM.

`C[C@@H](C(=O)Nc1ccc(F)cn1)N1CCC(F)(F)[C@@H](c2cc[n+]([O-])c(CC(F)(F)F)c2)C1` [Example 219]: the IC50 fell in the range of 10 to 100 nM.

Take `C[C@@H](C(=O)Nc1ccc(Oc2ccc(F)cc2F)cn1)N1CCC(F)(F)[C@@H](c2c[nH]c(=O)c(CN3CCOCC3)c2)C1` [Example 227, (S)-2-((S)-4,4-difluoro-3-(5-(morpholinomethyl)-6-oxo-1,6-dihydropyridin-3-yl)piperidin-1-yl)-N-(5-(2,4-difluorophenoxy)pyridin-2-yl)propanamide]: the IC50 was ≤ 10 nM.

Consider `C[C@@H](C(=O)Nc1ccc(Oc2ccc(F)cc2F)cn1)N1CCC(F)(F)[C@@H](c2cc[n+]([O-])c(C(N)=O)c2)C1` (single isomer, unassigned) [Example 258], for which the IC50 is ≤ 10 nM.

As for `C[C@@H](C(=O)Nc1ccc(Oc2c(F)cc(F)cc2F)cn1)N1CCC(F)(F)[C@@H](c2cc[n+]([O-])cc2)C1` [Example 123, 4-((S)-4,4-difluoro-1-((S)-1-oxo-1-((5-(2,4,6-trifluorophenoxy)pyridin-2-yl)amino)propan-2-yl)piperidin-3-yl)pyridine 1-oxide], the IC50 is ≤ 10 nM.

Compound `C[C@@H](C(=O)Nc1cnc(Oc2ccccc2)cn1)N1CCC(F)(F)[C@@H](c2c[nH]c(=O)c(CN)c2)C1` [Example 207, (S)-2-((S)-3-(5-(aminomethyl)-6-oxo-1,6-dihydropyridin-3-yl)-4,4-difluoropiperidin-1-yl)-N-(5-phenoxypyrazin-2-yl)propanamide] gave an IC50 of 10 to 100 nM.

In the case of `C[C@@H](C(=O)Nc1ccc(F)cn1)N1CCC(F)(F)C(c2ccc(=O)n(CCS(C)(=O)=O)c2)C1` (stereo partly drawn) [Example 190, (2S)-2-(4,4-difluoro-3-(1-(2-(methylsulfonyl)ethyl)-6-oxo-1,6-dihydropyridin-3-yl)piperidin-1-yl)-N-(5-fluoropyridin-2-yl)propanamide], the IC50 lay in the range of 100 to 3160 nM.
